Patent publication US12624034B2, “Non-covalent modifiers of AKT1 and uses thereof” (Terremoto Biosciences, Inc., priority 2023, dated 2026)
Read-outs that look alike come from different tables or passages of the source.

Key:
AKT2 = molecular target: T1, AKT2 (Homo sapiens, UniProt P31751); test: Live cell AKT2 target engagement by NanoBRET competitive probe displacement in HEK293 cells; type: binding; conditions: 2 h at 37° C., read-out: AKT2 IC50
T1 construct: expressed in transfected cells; host or cells: HEK293
T1 sequence (P31751 whole entry): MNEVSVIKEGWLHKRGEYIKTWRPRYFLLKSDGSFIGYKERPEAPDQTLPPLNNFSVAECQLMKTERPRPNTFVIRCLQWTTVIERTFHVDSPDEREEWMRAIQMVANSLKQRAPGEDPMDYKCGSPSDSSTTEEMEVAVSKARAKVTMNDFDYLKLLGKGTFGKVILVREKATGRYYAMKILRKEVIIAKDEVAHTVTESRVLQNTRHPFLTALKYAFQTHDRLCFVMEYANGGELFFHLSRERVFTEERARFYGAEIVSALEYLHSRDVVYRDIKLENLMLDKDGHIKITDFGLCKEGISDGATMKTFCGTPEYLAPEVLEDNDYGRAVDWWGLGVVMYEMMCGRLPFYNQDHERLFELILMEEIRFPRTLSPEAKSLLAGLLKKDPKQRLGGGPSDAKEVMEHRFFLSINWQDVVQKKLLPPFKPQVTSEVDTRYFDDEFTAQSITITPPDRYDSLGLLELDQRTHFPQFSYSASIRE
Experimental: (§1) Determining live cell AKT1 E17K, AKT1 WT, and AKT2 target engagement by NanoBRET competitive probe displacement. […] Briefly, HEK293 cells were transfected with plasmids encoding kinase-NanoLuciferase fusion proteins overnight. Cells were then treated with serial dilutions of compound and an ˜EC50 concentration of fluorescently-tagged ATP-competitive tracer (Promega). After incubation for 2 h at 37° C., luciferase substrate and extracellular luciferase inhibitor were added to all wells, and luminescent intensity at 460 nm and 600 nm were measured on a multimode plate-reader. The ratio of E600/E460 was calculated to give the tracer engagement signal (BRET). IC50 values were calculated by fitting BRET values to a log(inhibitor) vs. response Hill equation.

AKT1 WT = molecular target: T2, AKT1 WT (Homo sapiens, UniProt P31749); test: Live cell AKT1 WT target engagement by NanoBRET competitive probe displacement in HEK293 cells; type: binding; conditions: 2 h at 37° C.
T2 construct: expressed in transfected cells; host or cells: HEK293
T2 sequence (P31749 whole entry): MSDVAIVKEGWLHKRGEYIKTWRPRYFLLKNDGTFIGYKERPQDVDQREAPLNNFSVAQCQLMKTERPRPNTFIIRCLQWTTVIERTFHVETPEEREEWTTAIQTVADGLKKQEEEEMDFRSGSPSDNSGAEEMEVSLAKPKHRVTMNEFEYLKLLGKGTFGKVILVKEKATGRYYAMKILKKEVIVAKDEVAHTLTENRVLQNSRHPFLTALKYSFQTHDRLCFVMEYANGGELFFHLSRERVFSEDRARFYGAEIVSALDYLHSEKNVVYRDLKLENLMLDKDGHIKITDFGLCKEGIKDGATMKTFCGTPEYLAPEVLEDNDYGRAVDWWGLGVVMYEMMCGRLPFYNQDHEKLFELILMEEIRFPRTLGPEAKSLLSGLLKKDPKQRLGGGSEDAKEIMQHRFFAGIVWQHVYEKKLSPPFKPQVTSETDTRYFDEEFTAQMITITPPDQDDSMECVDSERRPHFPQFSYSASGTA
Experimental: as §1

[1] = NanoBRET live cell target engagement, HEK293 cells
[2] = NanoBRET live cell target engagement, HEK293 cells, read-out: AKT1 WT IC50
[3] = NanoBRET competitive probe displacement, live HEK293 cells
[4] = NanoBRET competitive probe displacement, live HEK293 cells, read-out: AKT1 WT IC50

Structure (SMILES) | IC50 (AKT2; [1]) | IC50 (AKT1 WT; [2]) | IC50 (AKT2; [3]) | IC50 (AKT1 WT; [4]) | IC50 (AKT1 WT; AKT1 WT IC50 (nM), NanoBRET live cell target engagement, HEK293 cells)
Cc1ncccc1OCC1CCc2cc(-n3c(-c4cccnc4N)nc4ccc(-n5cccn5)nc43)ccc21 (single isomer, unassigned) [Compound 252, (*)-3-(3-(1-(((2-methylpyridin-3-yl)oxy)methyl)-2,3-dihydro-1H-inden-5-yl)-5-(1H-pyrazol-1-yl)-3H-imidazo[4,5-b]pyridin-2-yl)pyridin-2-amine] | 2610 nM | 599 nM |  |  | 
Cc1ncccc1OCC1CCc2cc(-n3c(-c4cccnc4N)nc4ccc(-n5cccn5)nc43)ccc21 (single isomer, unassigned) [Compound 253, (*)-3-(3-(1-(((2-methylpyridin-3-yl)oxy)methyl)-2,3-dihydro-1H-inden-5-yl)-5-(1H-pyrazol-1-yl)-3H-imidazo[4,5-b]pyridin-2-yl)pyridin-2-amine] | 2120 nM | 65.8 nM |  |  | 
Nc1ncccc1-c1nc2ccc(-n3cccn3)nc2n1-c1ccc2c(c1)CC[C@@H]2NC1CCc2cnccc2C1 (single isomer, unassigned) [Compound 463] |  |  | 1080 nM | 27 nM | 
Nc1ncccc1-c1nc2ccc(-n3cccn3)nc2n1-c1ccc2c(c1)CC[C@@H]2NC1CCc2cc(O)ccc21 (single isomer, unassigned) [Compound 499] |  |  | 897 nM | 45.6 nM | 
COc1ccn(-c2ccc3nc(-c4cccnc4N)n(-c4ccc5c(c4)CC[C@@H]5NC4CCN(C(=O)C5CC5)CC4F)c3n2)n1 (single isomer, unassigned) [Compound 514] |  |  | 1130 nM | 26.4 nM | 
COc1ccn(-c2ccc3nc(-c4cccnc4N)n(-c4ccc5c(c4)CC[C@@H]5NC4[C@@H]5COC[C@H]4CN(C(=O)C4CC4)C5)c3n2)n1 (single isomer, unassigned) [Compound 523] |  |  | 1740 nM | 48.4 nM | 
COc1ccn(-c2ccc3nc(-c4cccnc4N)n(-c4ccc5c(c4)CC[C@@H]5NC4[C@@H]5COC[C@H]4CN(C(=O)C4CC4)C5)c3n2)n1 (single isomer, unassigned) [Compound 524] |  |  | 1740 nM | 48.4 nM | 
Nc1ncccc1-c1nc2ccc(-n3nccn3)nc2n1-c1ccc2c(c1)CC(F)[C@@H]2NC1CCN(C(=O)C2CC2)CC1 (single isomer, unassigned) [Compound 533] |  |  | 7230 nM | > 1000 nM | 
Nc1ncccc1-c1nc2ccc(-n3cccn3)nc2n1-c1ccc2c(c1)CC[C@@H]2NC1CCc2ccncc21 (single isomer, unassigned) [Example 495, (S*)—N—((S)-5-(2-(2-aminopyridin-3-yl)-5-(1H-pyrazol-1-yl)-3H-imidazo[4,5-b]pyridin-3-yl)-2,3-dihydro-1H-inden-1-yl)-6,7-dihydro-5H-cyclopenta[c]pyridin-7-amine] |  |  | 197 nM | 9.4 nM | 
Nc1ncccc1-c1nc2ccc(-n3cccn3)nc2n1-c1ccc2c(c1)CC[C@@H]2NC1CCc2ccncc21 (single isomer, unassigned) [Example 496, (R*)—N—((S)-5-(2-(2-aminopyridin-3-yl)-5-(1H-pyrazol-1-yl)-3H-imidazo[4,5-b]pyridin-3-yl)-2,3-dihydro-1H-inden-1-yl)-6,7-dihydro-5H-cyclopenta[c]pyridin-7-amine] |  |  | 1070 nM | 28.2 nM | 
Nc1ncccc1-c1nc2ccc(-n3cccn3)nc2n1-c1ccc2c(c1)CC[C@@H]2NC(=O)N1CCOCC1 [Compound 27, (S)—N-(5-(2-(2-aminopyridin-3-yl)-5-(1H-pyrazol-1-yl)-3H-imidazo[4,5-b]pyridin-3-yl)-2,3-dihydro-1H-inden-1-yl)morpholine-4-carboxamide] | > 10000 nM | > 1000 nM |  |  | 
Nc1ncccc1-c1nc2ccc(-n3cccn3)nc2n1-c1ccc2c(c1)CC[C@@H]2NC(=O)CC1CCC(=O)N1 (stereo partly drawn) [Compound 47, N—((S)-5-(2-(2-aminopyridin-3-yl)-5-(1H-pyrazol-1-yl)-3H-imidazo[4,5-b]pyridin-3-yl)-2,3-dihydro-1H-inden-1-yl)-2-(5-oxopyrrolidin-2-yl)acetamide] | > 10000 nM | > 1000 nM |  |  | 
Nc1ncccc1-c1nc2ccc(-n3cccn3)nc2n1-c1ccc2c(c1)CC[C@@H]2NC(=O)c1cnc2c(c1)CCC2(F)F [Compound 66] | 15 nM | 8.95 nM |  |  | 
Nc1ncccc1-c1nc2ccc(-n3cccn3)nc2n1-c1ccc2c(c1)CC[C@@H]2NC(=O)c1ccc(OC(F)(F)F)nc1 [Compound 68] | 15.2 nM | 5.29 nM |  |  | 
Cc1ccc(C(=O)N[C@H]2CCc3cc(-n4c(-c5cccnc5N)nc5ccc(-n6cccn6)nc54)ccc32)c(C)n1 [Compound 69] | 71.6 nM | 10.9 nM |  |  | 
Cc1ccc(CN[C@H]2CCc3cc(-n4c(-c5cccnc5N)nc5ccc(-n6cccn6)nc54)ccc32)cn1 [Compound 70] | 576 nM | 49.4 nM |  |  | 
Cc1cnc2ccc(C(=O)N[C@H]3CCc4cc(-n5c(-c6cccnc6N)nc6ccc(-n7cccn7)nc65)ccc43)cn12 [Compound 71] | 69.7 nM | 4.63 nM |  |  | 
Cc1cn2cc(C(=O)N[C@H]3CCc4cc(-n5c(-c6cccnc6N)nc6ccc(-n7cccn7)nc65)ccc43)ccc2n1 [Compound 72] | 28.1 nM | 7.95 nM |  |  | 

Structure (SMILES) | IC50 (AKT2; [1]) | IC50 (AKT1 WT; [2]) | IC50 (AKT2; [3]) | IC50 (AKT1 WT; [4]) | IC50 (AKT1 WT; AKT1 WT IC50 (nM), NanoBRET live cell target engagement, HEK293 cells)
Cc1ccc(C(=O)N[C@H]2CCc3cc(-n4c(-c5cccnc5N)nc5ccc(-c6ccn(C(F)F)n6)nc54)ccc32)cn1 [Compound 73] | 49.8 nM | 9.03 nM |  |  | 
Nc1ncccc1-c1nc2ccc(-c3ccn(C(F)F)n3)nc2n1-c1ccc2c(c1)CC[C@@H]2NC(=O)c1ccc(C(F)F)nc1 [Compound 74] | 34.8 nM | 4.94 nM |  |  | 
Cc1cc(C(=O)N[C@H]2CCc3cc(-n4c(-c5cccnc5N)nc5ccc(-n6cccn6)nc54)ccc32)ccn1 [Compound 75] | 73.6 nM | 5.99 nM |  |  | 
Cc1cc(C(=O)N[C@H]2CCc3cc(-n4c(-c5cccnc5N)nc5ccc(-n6cccn6)nc54)ccc32)cc(C)n1 [Compound 76] | 39.4 nM |  |  |  | 6.86 nM
Nc1ncccc1-c1nc2ccc(-n3cccn3)nc2n1-c1ccc2c(c1)CC[C@@H]2NC(=O)c1ccc(C(F)(F)F)nc1 [Compound 77] | 50.1 nM | 13.6 nM |  |  | 
Nc1ncccc1-c1nc2ccc(-n3cccn3)nc2n1-c1ccc2c(c1)CC[C@@H]2NC(=O)c1cccnc1OC(F)(F)F [Compound 78] | 1910 nM | 106 nM |  |  | 
Nc1ncccc1-c1nc2ccc(-n3cccn3)nc2n1-c1ccc2c(c1)CC[C@@H]2NC(=O)c1cccnc1C(F)F [Compound 79] | 540 nM | 19.5 nM |  |  | 
CCc1ccc(C(=O)N[C@H]2CCc3cc(-n4c(-c5cccnc5N)nc5ccc(-n6cccn6)nc54)ccc32)cn1 [Compound 80] | 28.4 nM | 8.65 nM |  |  | 
Cc1cc2c(=O)n([C@H]3CCc4cc(-n5c(-c6cccnc6N)nc6ccc(-n7cccn7)nc65)ccc43)cnc2cn1 [Compound 81, (S)-3-(5-(2-(2-aminopyridin-3-yl)-5-(1H-pyrazol-1-yl)-3H-imidazo[4,5-b]pyridin-3-yl)-2,3-dihydro-1H-inden-1-yl)-6-methylpyrido[3,4-d]pyrimidin-4(3H)-one] | 2900 nM | 121 nM |  |  | 
Cc1ccc(S(=O)(=O)N[C@H]2CCc3cc(-n4c(-c5cccnc5N)nc5ccc(-n6cccn6)nc54)ccc32)cn1 [Compound 82] | 2140 nM | 65.8 nM |  |  | 
Nc1ncccc1-c1nc2ccc(-n3cccn3)nc2n1-c1ccc2c(c1)CC[C@@H]2n1ccc(=O)cc1 [Compound 83, (S)-1-(5-(2-(2-aminopyridin-3-yl)-5-(1H-pyrazol-1-yl)-3H-imidazo[4,5-b]pyridin-3-yl)-2,3-dihydro-1H-inden-1-yl)pyridin-4(1H)-one] | 867 nM | 139 nM |  |  | 
Nc1ncccc1-c1nc2ccc(-n3cccn3)nc2n1-c1ccc2c(c1)CC[C@@H]2NCc1ccc(C(F)F)nc1 [Compound 84] | 1960 nM | 113 nM |  |  | 
CN(C)Cc1ccc(C(=O)N[C@H]2CCc3cc(-n4c(-c5cccnc5N)nc5ccc(-n6cccn6)nc54)ccc32)cn1 [Compound 85] | 169 nM | 36.3 nM |  |  | 
CCc1ncccc1C(=O)N[C@H]1CCc2cc(-n3c(-c4cccnc4N)nc4ccc(-n5cccn5)nc43)ccc21 [Compound 86] | 427 nM | 46.8 nM |  |  | 
Nc1ncccc1-c1nc2ccc(-n3cccn3)nc2n1-c1ccc2c(c1)CC[C@@H]2N1CCC1 [Compound 87, (S)-3-(3-(1-(azetidin-1-yl)-2,3-dihydro-1H-inden-5-yl)-5-(1H-pyrazol-1-yl)-3H-imidazo[4,5-b]pyridin-2-yl)pyridin-2-amine] | 1900 nM | 149 nM |  |  | 
Nc1ncccc1-c1nc2ccc(-n3cccn3)nc2n1-c1ccc2c(c1)CC[C@@H]2NC1CCC1 [Compound 88, (S)-3-(3-(1-(cyclobutylamino)-2,3-dihydro-1H-inden-5-yl)-5-(1H-pyrazol-1-yl)-3H-imidazo[4,5-b]pyridin-2-yl)pyridin-2-amine] | 1810 nM | 155 nM |  |  | 
Nc1ncccc1-c1nc2ccc(-n3cccn3)nc2n1-c1ccc2c(c1)CC[C@@H]2NC1CCS(=O)(=O)CC1 [Compound 89] | > 10000 nM | 459 nM |  |  | 
Nc1ncccc1-c1nc2ccc(-n3cccn3)nc2n1-c1ccc2c(c1)CC[C@@H]2NC(=O)c1cccnc1-n1cccn1 [Compound 90] | 5850 nM | 228 nM |  |  | 
